Measurements: article PMC10313001, “Carboxylic acids that drive mosquito attraction to humans activate ionotropic receptors” (PLOS Neglected Tropical Diseases, 2023)

How the values were obtained:
AalbIR75e = test system: T1, AalbIR75e; test: two-electrode voltage clamp, Xenopus oocytes expressing AalbIR75e/AalbIR8a; format: cell-based, Aedes albopictus
T1 construct: gene Ir75e; with AalbIR8a

AaegIR75k1 [1] = biological target: T2, AaegIR75k1 (Aedes aegypti, UniProt A0A6I8TFY9); test: two-electrode voltage clamp, Xenopus oocytes expressing AaegIR75k1/AaegIR8a; format: cell-based
T2 construct: gene 5563741; with AaegIR8a
T2 sequence (A0A6I8TFY9 20-624): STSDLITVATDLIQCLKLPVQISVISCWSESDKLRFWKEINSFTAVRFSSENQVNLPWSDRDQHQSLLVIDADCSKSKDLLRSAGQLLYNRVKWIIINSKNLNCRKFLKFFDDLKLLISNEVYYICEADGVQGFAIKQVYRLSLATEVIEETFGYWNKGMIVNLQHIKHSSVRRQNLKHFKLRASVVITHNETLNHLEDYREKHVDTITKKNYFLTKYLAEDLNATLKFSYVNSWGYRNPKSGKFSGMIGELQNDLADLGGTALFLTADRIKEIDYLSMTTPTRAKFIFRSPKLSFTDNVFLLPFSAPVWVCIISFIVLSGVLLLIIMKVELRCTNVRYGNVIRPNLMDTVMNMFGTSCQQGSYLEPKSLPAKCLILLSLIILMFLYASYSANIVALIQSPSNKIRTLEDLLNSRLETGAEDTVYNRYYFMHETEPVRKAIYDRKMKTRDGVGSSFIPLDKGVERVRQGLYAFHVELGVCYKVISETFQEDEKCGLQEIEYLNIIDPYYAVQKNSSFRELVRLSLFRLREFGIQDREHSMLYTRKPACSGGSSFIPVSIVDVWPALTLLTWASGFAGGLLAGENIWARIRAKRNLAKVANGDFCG
T2 sequence (A0A1S4F362 23-913 partner): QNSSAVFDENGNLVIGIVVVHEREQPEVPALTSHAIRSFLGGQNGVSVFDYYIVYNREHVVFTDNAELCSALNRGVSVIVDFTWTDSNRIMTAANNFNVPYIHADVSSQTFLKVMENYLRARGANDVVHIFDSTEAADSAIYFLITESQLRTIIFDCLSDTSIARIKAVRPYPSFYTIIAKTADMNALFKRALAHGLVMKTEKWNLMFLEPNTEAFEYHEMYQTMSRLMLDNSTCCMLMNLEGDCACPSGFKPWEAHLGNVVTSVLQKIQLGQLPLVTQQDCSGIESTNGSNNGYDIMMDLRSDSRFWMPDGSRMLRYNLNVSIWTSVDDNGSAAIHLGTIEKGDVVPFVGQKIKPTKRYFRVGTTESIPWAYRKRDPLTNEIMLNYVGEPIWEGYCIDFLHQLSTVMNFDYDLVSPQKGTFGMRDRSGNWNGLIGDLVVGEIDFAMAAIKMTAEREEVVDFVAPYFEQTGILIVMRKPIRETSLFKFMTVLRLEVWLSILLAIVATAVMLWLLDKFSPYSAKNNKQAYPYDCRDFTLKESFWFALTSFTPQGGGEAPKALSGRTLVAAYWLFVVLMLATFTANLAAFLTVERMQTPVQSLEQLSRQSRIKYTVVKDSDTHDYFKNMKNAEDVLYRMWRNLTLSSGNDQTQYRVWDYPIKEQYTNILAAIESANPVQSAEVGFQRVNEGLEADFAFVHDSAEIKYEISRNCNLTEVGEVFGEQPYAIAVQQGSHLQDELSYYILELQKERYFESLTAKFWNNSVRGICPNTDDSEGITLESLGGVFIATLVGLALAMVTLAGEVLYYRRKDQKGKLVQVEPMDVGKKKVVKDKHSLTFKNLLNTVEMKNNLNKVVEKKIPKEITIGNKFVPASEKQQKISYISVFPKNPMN

AaegIR75k3 = biological target: T3, AaegIR75k3 (Aedes aegypti, UniProt A0A6I8U3Y9); test: two-electrode voltage clamp, Xenopus oocytes expressing AaegIR75k3/AaegIR8a; format: cell-based
T3 construct: gene 5563739; with AaegIR8a
T3 sequence (A0A6I8U3Y9 20-624): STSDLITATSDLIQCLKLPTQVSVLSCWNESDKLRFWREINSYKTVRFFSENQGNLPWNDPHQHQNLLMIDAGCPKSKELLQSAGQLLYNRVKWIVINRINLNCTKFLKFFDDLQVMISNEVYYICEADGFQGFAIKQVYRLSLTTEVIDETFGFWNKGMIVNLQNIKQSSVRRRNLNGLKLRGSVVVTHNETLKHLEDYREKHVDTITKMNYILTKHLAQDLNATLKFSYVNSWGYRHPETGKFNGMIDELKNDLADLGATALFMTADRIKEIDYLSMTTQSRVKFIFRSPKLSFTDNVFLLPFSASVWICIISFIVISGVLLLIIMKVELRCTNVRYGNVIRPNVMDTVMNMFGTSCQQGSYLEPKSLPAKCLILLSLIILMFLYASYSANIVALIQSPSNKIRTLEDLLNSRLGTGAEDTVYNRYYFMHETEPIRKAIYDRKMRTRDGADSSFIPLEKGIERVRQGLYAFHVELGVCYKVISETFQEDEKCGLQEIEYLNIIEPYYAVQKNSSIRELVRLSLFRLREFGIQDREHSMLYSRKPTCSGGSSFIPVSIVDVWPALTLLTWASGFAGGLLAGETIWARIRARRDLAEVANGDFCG
T3 sequence (A0A1S4F362 23-913 partner): T2 sequence (A0A1S4F362 23-913 partner)

AaegIR75k1 [2] = biological target: T2, AaegIR75k1; test: two-electrode voltage clamp, Xenopus oocytes, single concentration […]; response about one quarter of nonanoic acid; format: cell-based

Compound	EC50 (AalbIR75e) [µM]	EC50 (AaegIR75k1 [1]) [µM]	EC50 (AaegIR75k3) [µM]	two-electrode voltage clamp, Xenopus oocytes, single concentration 10^-4 M; resp (AaegIR75k1 [2])
CCCCCCCCC(=O)O [nonanoic acid]	8.64	9.94	18.1	
CCCCCCCC(=O)O [octanoic acid]			25.2	also maximally activated by nonanoic acid, with responses four-fold greater than for octanoic acid
